Measured values: patent publication US8710010B2, “Peptides useful in the treatment and/or care of skin, mucous membranes, scalp and/or hair and their use in cosmetic or pharmaceutical compositions” (Lipotec, S.A., priority 2008, dated 2014)
Where a SMILES comes first, the peptide text is derived from it. [ ]: non-standard residue; d: D form. Dap = NC[C@H](N)C(=O)O

Assays:
[1] = Scavenging assay of 4-hydroxy-2-nonenal; assay type: biochemical; conditions: 2 mM peptide in 10 mM PBS mixed with equal volume of 100 μM aldehyde in acetonitrile, 37° C., 24 h, HPLC of remaining aldehyde
Description: Scavenging assay of 4-hydroxy-2-nonenal.
(§1) A solution was prepared from peptides in a 10 mM PBS buffer at a concentration of 2 mM, as well as a solution of the aldehyde in acetonitrile at a concentration of 100 μM. Equal volumes of peptide solutions and aldehyde were mixed and were left to react at 37° C. for 24 h. The scavenging efficiency of the RCS was measured by HPLC analysis of the remaining aldehyde content in the reaction mixture.

[2] = Scavenging assay of 2-nonenal; assay type: biochemical; conditions: 2 mM peptide in 10 mM PBS mixed with equal volume of 100 μM aldehyde in acetonitrile, 37° C., 24 h, HPLC of remaining aldehyde
Description: Scavenging assay of 2-nonenal.
as §1, with “and” for “and were”

[3] = tested on: human keratinocytes; experiment: Photoprotection efficiency in cultured human keratinocytes (solar simulation lamp, Neutral Red viability); assay type: cell-based; conditions: 1 mg/ml peptide, viability compared with irradiated and non-irradiated control cells
Description: Testing the photoprotection efficiency of H-L-Dpr-D-Ala-L-Pro-L-His-OH, H-L-Dpr-D-Ala-L-Ala-L-His-OH and H-L-Dp- L-Ala-L-Pro-L-His-OH in cultured human keratinocytes.
Human keratinocytes were maintained in culture for 24 h on 96 well plates to form monolayers and the cells were pre-incubated in the dark with 1 mg/ml of H-L-Dpr-D-Ala-L-Pro-L-His-OH, H-L-Dpr-D-Ala-L-Ala-L-His-OH, H-L-Dpr-L-Ala-L-Pro-L-His-OH or phosphate buffered saline (control) for one hour at 37° C. and humidified air with 5% CO2. Subsequently, cells were irradiated with a solar simulation lamp (with an energy of 37 J/cm^2 at room temperature for 150 min in the case of H-L-Dpr-D-Ala-L-Pro-L-His-OH). A control plate was kept in the dark during the same time at room temperature. After the period of irradiation, the cell medium was replaced by a fresh medium and the cells were incubated for an additional 24 h.
Cell viability was determined by the Neutral Red dye, measuring the absorbance at 540 nm in a spectrophotometer.
The photoprotection efficiency was determined by comparing the viability obtained in cells treated with H-L-Dpr-D-Ala-L-Pro-L-His-OH, H-L-Dpr-D-Ala-L-Ala-L-His-OH or H-L-Dpr-L-Ala-L-Pro-L-His-OH on the response of irradiated and non-irradiated control cells.

[4] = Reduction of the odor emitted by aldehyde 2-nonenal (sniff test); conditions: 0.05% peptide in phosphate buffer 10 mM pH 7-7.5 added to equal volume of 0.00089% 2-nonenal in acetonitrile, odor at time zero and 24 h, panel of 3 experts
Description: Reduction of the Odor Emitted by Aldehyde 2-nonenal
We evaluated the reduction of the odor given off by aldehyde 2-nonenal after the addition of a solution containing 0.05% of H-L-Dpr-L-Ala-L-Ala-L-His-OH through an olfactory test (“sniff test”) conducted by a panel of 3 independent experts.
We prepared a solution of 2-nonenal at 0.00089% in acetonitrile to which was added an equal volume of phosphate buffer 10 mM pH 7-7.5 or H-L-Dpr-L-Ala-L-Ala-L-His-OH to 0.05% in phosphate buffer 10 mM pH 7-7.5. We evaluated the odor intensity given off at time zero and 24 h after creating the mixture of aldehyde and peptide, performing the measurements in a room heated to 24° C. and with controlled humidity at 60% and statistically analyzed the values obtained using the Wilcoxon Matched Paired test.

[5] = tested on: Primary cultures of human fibroblasts; experiment: Repair capacity of DNA degradation (UVB, alkaline comet assay); assay type: cell-based; conditions: UVB 0.4 J/cm^2 30 s, versus intrinsic repair efficiency of the cells
Source text: Testing the Repair Capacity of DNA Degradation
Primary cultures of human fibroblasts (10^5 cells/plate) were irradiated to 0.4 J/cm^2 UVB for 30 seconds. […]

[6] = tested on: Primary cultures of human melanocytes; experiment: Protective capacity against DNA degradation (UVA, alkaline comet assay); assay type: cell-based; conditions: 1.0 μg/mL for 2 h at 37° C., then UVA 1.0 J/cm^2, alkaline comet assay
Description: Test of the Protective Capacity of DNA Degradation
Primary cultures of human melanocytes (10^5 cells/plate) were treated with 1.0 μg/mL of H-L-Dpr-D-Ala-L-Pro-L-His-OH for 2 h at 37° C. Subsequently, the cultures were irradiated with UVA at 1.0 J/cm^2 for no longer than 3min at 4° C. and the extent of the damage induced to DNA was determined by alkaline comet assay [De Meo M., Laget M., Castegnaro M. and Dumenil G. (1991) “Genotoxic activity of potassium permanganate in acidic solutions” Mutat. Res 260:295-306].

Molecule	Scavenging % of HNE aldehyde [1] [%]	Scavenging % of NE aldehyde [2] [%]	also measured
H-L-Dpr-D-Ala-L-Asp-L-His-OH	98.8	95.4	
C[C@H](NC(=O)[C@@H](N)CN)C(=O)N1CCC[C@H]1C(=O)N[C@@H](Cc1c[nH]cn1)C(=O)O [H-L-Dpr-L-Ala-L-Pro-L-His-OH] (H-[Dap]APH-OH)	93.9	76.7	PHOTOPROTECTION EFFICIENCY [3]: 56.8%
H-L-Dpr-L-Ala-L-Asn-L-His-OH		73.1	
H-L-Dpr-L-Ala-L-Asp-D-His-OH	86.3	66.5	
H-L-Dpr-L-Ala-L-Asp-L-His-NH2	97.5	94.5	
H-L-Dpr-L-Ala-L-Ala-L-His-OH		74.6	reduction of the odor given off by 2-nonenal [4]: 15.6%
H-L-Dpr-D-Ala-L-Pro-L-His-NH2	98.3	98.1	
NCCCC[C@H](NC(=O)[C@H](Cc1c[nH]cn1)NC(=O)CN)C(=O)O [GHK, glycyl-histidyl-lysine, reference compound] (H-Gly-His-Lys-OH)	82.1	24.7	
H-L-Dpr-D-Ala-L-Ala-L-His-NH2	97.7	98.2	
H-L-Dpr-L-Ala-L-Pro-L-His-NH2	96.3	88.7	
H-L-Dpr-D-Ala-L-Glu-L-His-OH		93.2	
NCCC(=O)N[C@@H](Cc1cnc[nH]1)C(=O)O [Carnosine, carnosine, reference compound]	89.4	70.3	
H-L-Dpr-L-Ala-L-Glu-L-His-OH		75.6	
H-L-Dpr-L-Ala-L-Glu-L-His-NH2		92.6	
H-L-Dpr-L-Ala-L-Ala-L-His-NH2	96.0	94.1	
C[C@@H](NC(=O)[C@@H](N)CN)C(=O)N1CCC[C@H]1C(=O)N[C@@H](Cc1c[nH]cn1)C(=O)O [H-L-Dpr-D-Ala-L-Pro-L-His-OH] (H-[Dap][dA]PH-OH)	98.0	97.0	REPAIR EFFICIENCY of DNA degradation ([5]; then 0.25 μg/mL for 3 h at 37° C.): 120%; REPAIR EFFICIENCY of DNA degradation ([5]; then 0.5 μg/mL for 3 h at 37° C.): 170%; PHOTOPROTECTION EFFICIENCY [3]: 92.0%; PROTECTIVE EFFICIENCY against DNA degradation [6]: 36.1%
H-L-Dpr-D-Ala-L-Glu-L-His-NH2	97.7	95.2	
H-L-Dpr-L-Ala-L-Asn-L-His-NH2		95.3	
H-L-Dpr-L-Ala-L-Asp-L-His-OH	97.6		
H-L-Dpr-L-Ala-D-Asp-L-His-OH	94.1	83.1	
H-L-Dpr-D-AIa-L-Asn-L-His-NH2		98.9	
